In patent US5399681A, “Method for preparing N^6 -substituted NAD, NADP or FAD” (Gesellschaft fur Biotechnologische Forschung mbH (GBF), priority 1986, dated 1995):

Each compound was assayed against T1, yeast alcohol dehydrogenase (Saccharomyces cerevisiae, UniProt P00330) (assay: Enzymatic reducibility with the reaction catalyzed by yeast alcohol dehydrogenase). Conditions: 0.1M tris/HCl pH 8.2, room temperature, 0.1M ethanol, 7 mM semicarbazide/HCl, 0.1 mM coenzyme free or polymer-bound, 0.3 mg alcohol dehydrogenase.
T1 sequence (P00330 1-348): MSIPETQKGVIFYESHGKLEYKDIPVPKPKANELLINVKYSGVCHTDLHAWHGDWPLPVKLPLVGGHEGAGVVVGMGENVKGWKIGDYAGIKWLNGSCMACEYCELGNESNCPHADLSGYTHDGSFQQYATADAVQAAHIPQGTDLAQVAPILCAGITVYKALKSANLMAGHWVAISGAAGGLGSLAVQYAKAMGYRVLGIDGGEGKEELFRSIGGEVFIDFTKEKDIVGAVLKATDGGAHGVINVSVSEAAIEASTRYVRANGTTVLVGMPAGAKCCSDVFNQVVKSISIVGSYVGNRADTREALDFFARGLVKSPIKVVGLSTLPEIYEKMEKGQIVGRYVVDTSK
Format: biochemical
Experimental: The enzymatic reducibility of the water-soluble polymer-bound N^6 -(2-aminoethyl)-NAD derivatives was determined compared with N^6 -(2-aminoethyl)-NAD with the reaction catalyzed by yeast alcohol dehydrogenase under the following conditions:
0.1M tris/HCl, pH 8.2, room temperature
0.1 mM N^6 -(2-aminoethyl)-NAD
0.3 mg alcohol dehydrogenase
Note: For N^6 -(2-aminoethyl)-NAD and N^6 -(2-aminoethyl)-NADH derivatives ε267 =21000 M^-1 cm^-1 and ε340 =6220 M^-1 cm^-1 as extiction coefficients.

Point of comparison: “poly-(ethylene/maleic acid)-N^6 -(2-aminoethyl)-NAD”, Reducibility % 60%. Against it:
- dextran-N^6 -(2-aminoethyl)-NAD — higher, 90%
- NCCNc1ncnc2c1ncn2[C@@H]1O[C@H](COP(=O)(O)OP(=O)([O-])OC[C@H]2O[C@@H]([n+]3cccc(C(N)=O)c3)[C@H](O)[C@@H]2O)[C@@H](O)[C@H]1O [N^6-(2-aminoethyl)-NAD] — higher, 100%
- polyethylene glycol N^6 -(2-aminoethyl)-NAD — higher, 90%
- poly-(methylvinyl ether/maleic acid)-N^6 -(2-aminoethyl)-NAD — higher, 70%
- polyvinylpyrrolidone N^6 -(2-aminoethyl)-NAD — higher, 90%
- poly-(divinyl ether/maleic acid)-N^6 -(2-aminoethyl)-NAD — the same, 60%

Same assay, conditions: catalyzed by beer yeast alcohol dehydrogenase

`NCCNc1ncnc2c1ncn2[C@@H]1O[C@H](COP(=O)(O)OP(=O)([O-])OC[C@H]2O[C@@H]([n+]3cccc(C(N)=O)c3)[C@H](O)[C@@H]2O)[C@@H](O)[C@H]1O` [N^6-(2-aminoethyl)-NAD] was tested, and the “Enzymatic reduction to N^6 -(2-aminoethyl)-NADH (in words)” value was “Quantitative reduction”.

What follows are compounds tested against T2, yeast glucose 6-phosphate dehydrogenase (Saccharomyces cerevisiae, UniProt P11412) (assay: Enzymatic reducibility with the reaction catalyzed by yeast glucose 6-phosphate dehydrogenase). Conditions: 0.05M triethanolamine/HCl pH 8.0, room temperature, 5.5 mM MgCl2, 4.5 mM glucose-6-phosphate, 0.1 mM coenzyme free or polymer-bound, 30 μg glucose-6-phosphate dehydrogenase.
T2 sequence (P11412 1-505): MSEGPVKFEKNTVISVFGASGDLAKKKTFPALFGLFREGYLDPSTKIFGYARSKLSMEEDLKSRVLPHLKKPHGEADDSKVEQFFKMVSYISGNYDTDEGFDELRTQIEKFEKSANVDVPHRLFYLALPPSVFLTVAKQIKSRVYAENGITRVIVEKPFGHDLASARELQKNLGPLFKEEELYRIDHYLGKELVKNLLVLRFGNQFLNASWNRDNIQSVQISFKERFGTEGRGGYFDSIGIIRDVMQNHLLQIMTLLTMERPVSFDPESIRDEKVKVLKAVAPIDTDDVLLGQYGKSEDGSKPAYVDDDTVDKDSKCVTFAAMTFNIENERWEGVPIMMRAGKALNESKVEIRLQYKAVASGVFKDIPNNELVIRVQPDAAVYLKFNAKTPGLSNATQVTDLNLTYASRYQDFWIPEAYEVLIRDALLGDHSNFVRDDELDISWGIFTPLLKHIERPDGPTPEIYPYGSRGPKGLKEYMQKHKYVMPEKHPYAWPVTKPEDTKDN
Format: biochemical
Experimental: The enzymatic reducibility of the water-soluble polymer-bound N^6 -(2-aminoethyl)-NADP derivatives was determined compared with N^6 -(2-aminoethyl)-NADP with the reaction catalyzed by yeast glucose 6-phosphate dehydrogenase under the following conditions:
0.05M triethanolamine/HCl, pH 8.0, room temperature
4.5 mM glucose-6-phosphate
0.1 mM N^6 -(2-aminoethyl)-NADP (free or polymer-bound)
30 μg glucose-6-phosphate dehydrogenase
Note: For the N^6 -(2-aminoethyl)NADP and ^6 -(2-aminoethyl)-NADPH derivatives ε267 =21000 M^-1 cm^-1 and ε340 =6220 M^-1 cm^-1 were assumed as extinction coefficients.

Point of comparison: “poly-(methylvinyl ether/maleic acid)-N^6 -(2-aminoethyl)-NADP”, Reducibility % 60%. Against it:
- poly-(divinyl ether/maleic acid)-N^6 -(2-aminoethyl)-NADP — higher, 63%
- PEG (Mr =20000)-N^6 -(2-aminoethyl)-NADP — higher, 95%
- NCCNc1ncnc2c1ncn2[C@@H]1O[C@H](COP(=O)(O)OP(=O)([O-])OC[C@H]2O[C@@H]([n+]3cccc(C(N)=O)c3)[C@H](O)[C@@H]2O)[C@@H](O)[C@H]1OP(=O)(O)O [N^6-(2-aminoethyl)-NADP] — higher, 100%
- poly-(ethylene/maleic acid)-N^6 -(2-aminoethyl)-NADP — lower, 50%
- PEG (Mr =4000)-N^6 -(2-aminoethyl)-NADP — higher, 95%

Same assay, conditions: catalyzed by beer yeast glucose-6-phosphate dehydrogenase

In the case of `NCCNc1ncnc2c1ncn2[C@@H]1O[C@H](COP(=O)(O)OP(=O)([O-])OC[C@H]2O[C@@H]([n+]3cccc(C(N)=O)c3)[C@H](O)[C@@H]2O)[C@@H](O)[C@H]1OP(=O)(O)O` [N^6-(2-aminoethyl)-NADP], the “Enzymatic reduction to N^6 -(2-aminoethyl)-NADPH (in words)” value is reported as “Quantitative reduction”.
